Values quoted from earlier work in patent publication US11844805B2, “Formulations of testosterone and methods of treatment therewith” (BOARD OF REGENTS, THE UNIVERSITY OF TEXAS SYSTEM, priority 2014, dated 2023).

How the values were obtained:
[1] = intranasal administration; baseline mean 2.5 pmol/L
[2] = women, single dose, sublingual

## C[C@]12CC[C@H]3[C@@H](CCC4=CC(=O)CC[C@@]43C)[C@@H]1CC[C@@H]2O [testosterone]
[1]
  maximum testosterone concentration (mean): 168.2 pmol/L
[2]
  effect on subjective sexual desire, genital responsiveness and genital arousal: increase subjective sexual desire, genital responsiveness, and genital arousal
